# Tested on: DU-4475
# Assay: normalised response (% of control), CellTox Green; higher = less cell death (100 = DMSO, 0 = benzethonium chloride kill control)
# Details: incubation time: 72 h
# Outline: (§1)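 A 20 µl suspension of breast cancer cells was seeded into each well of 384-well plates containing compound at 5 concentrations in 10-fold steps over a compound-specific 10,000-fold range. After 72 h incubation, CellTox Green fluorescence (485/520 nm) was read first, and CellTiter-Glo luminescence was read after 10 min at room temperature. Each plate was normalised against 0.1 % DMSO (100) and a positive kill control (0), and each value is the normalised signal at one concentration.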
row,Structure (SMILES),normalised response [%]
1,O=C(CCCCCCC(=O)Nc1ccc([C@H]2O[C@@H](CSc3nc(-c4ccccc4)c(-c4ccccc4)o3)C[C@@H](c3ccc(CO)cc3)O2)cc1)NO [Tubacin] (10000 nM),92.1
2,NC(=O)Nc1cc(-c2cccc(F)c2)sc1C(=O)N[C@H]1CCCNC1 [AZD7762] (1000 nM),99.9
3,CCCCCCCCCCCCCCCCCCOP(=O)([O-])OC1CC[N+](C)(C)CC1 [Perifosine] (2500 nM),95.7

# Tested on: MDA-MB-468
# Assay: as above
# Details: incubation time: 72 h
# Outline: as §1
row,Structure (SMILES),normalised response [%]
1,O=C(CCCCCCC(=O)Nc1ccc([C@H]2O[C@@H](CSc3nc(-c4ccccc4)c(-c4ccccc4)o3)C[C@@H](c3ccc(CO)cc3)O2)cc1)NO [Tubacin] (10000 nM),98.2
2,NC(=O)Nc1cc(-c2cccc(F)c2)sc1C(=O)N[C@H]1CCCNC1 [AZD7762] (1000 nM),75.8
3,CCCCCCCCCCCCCCCCCCOP(=O)([O-])OC1CC[N+](C)(C)CC1 [Perifosine] (2500 nM),133

# Tested on: CAL-120
# Assay: as above
# Details: incubation time: 72 h
# Outline: as §1
row,Structure (SMILES),normalised response [%]
1,O=C(CCCCCCC(=O)Nc1ccc([C@H]2O[C@@H](CSc3nc(-c4ccccc4)c(-c4ccccc4)o3)C[C@@H](c3ccc(CO)cc3)O2)cc1)NO [Tubacin] (10000 nM),75.1
2,NC(=O)Nc1cc(-c2cccc(F)c2)sc1C(=O)N[C@H]1CCCNC1 [AZD7762] (1000 nM),91.8
3,CCCCCCCCCCCCCCCCCCOP(=O)([O-])OC1CC[N+](C)(C)CC1 [Perifosine] (2500 nM),107

# Tested on: HCC1143
# Assay: as above
# Details: incubation time: 72 h
# Outline: as §1
row,Structure (SMILES),normalised response [%]
1,O=C(CCCCCCC(=O)Nc1ccc([C@H]2O[C@@H](CSc3nc(-c4ccccc4)c(-c4ccccc4)o3)C[C@@H](c3ccc(CO)cc3)O2)cc1)NO [Tubacin] (10000 nM),27.7
2,NC(=O)Nc1cc(-c2cccc(F)c2)sc1C(=O)N[C@H]1CCCNC1 [AZD7762] (1000 nM),103
3,CCCCCCCCCCCCCCCCCCOP(=O)([O-])OC1CC[N+](C)(C)CC1 [Perifosine] (2500 nM),67

# Tested on: MCF-10A
# Assay: as above
# Details: incubation time: 72 h
# Outline: as §1
row,Structure (SMILES),normalised response [%]
1,O=C(CCCCCCC(=O)Nc1ccc([C@H]2O[C@@H](CSc3nc(-c4ccccc4)c(-c4ccccc4)o3)C[C@@H](c3ccc(CO)cc3)O2)cc1)NO [Tubacin] (10000 nM),110
2,NC(=O)Nc1cc(-c2cccc(F)c2)sc1C(=O)N[C@H]1CCCNC1 [AZD7762] (1000 nM),90.8
3,CCCCCCCCCCCCCCCCCCOP(=O)([O-])OC1CC[N+](C)(C)CC1 [Perifosine] (2500 nM),117

# Tested on: MDA-MB-436
# Assay: as above
# Details: incubation time: 72 h
# Outline: as §1
row,Structure (SMILES),normalised response [%]
1,O=C(CCCCCCC(=O)Nc1ccc([C@H]2O[C@@H](CSc3nc(-c4ccccc4)c(-c4ccccc4)o3)C[C@@H](c3ccc(CO)cc3)O2)cc1)NO [Tubacin] (10000 nM),89.9
2,NC(=O)Nc1cc(-c2cccc(F)c2)sc1C(=O)N[C@H]1CCCNC1 [AZD7762] (1000 nM),84.9
3,CCCCCCCCCCCCCCCCCCOP(=O)([O-])OC1CC[N+](C)(C)CC1 [Perifosine] (2500 nM),78

# Tested on: MFM-223
# Assay: as above
# Details: incubation time: 72 h
# Outline: as §1
row,Structure (SMILES),normalised response [%]
1,O=C(CCCCCCC(=O)Nc1ccc([C@H]2O[C@@H](CSc3nc(-c4ccccc4)c(-c4ccccc4)o3)C[C@@H](c3ccc(CO)cc3)O2)cc1)NO [Tubacin] (10000 nM),81.7
2,NC(=O)Nc1cc(-c2cccc(F)c2)sc1C(=O)N[C@H]1CCCNC1 [AZD7762] (1000 nM),95.8
3,CCCCCCCCCCCCCCCCCCOP(=O)([O-])OC1CC[N+](C)(C)CC1 [Perifosine] (2500 nM),90.3

# Tested on: HCC1937
# Assay: as above
# Details: incubation time: 72 h
# Outline: as §1
row,Structure (SMILES),normalised response [%]
1,O=C(CCCCCCC(=O)Nc1ccc([C@H]2O[C@@H](CSc3nc(-c4ccccc4)c(-c4ccccc4)o3)C[C@@H](c3ccc(CO)cc3)O2)cc1)NO [Tubacin] (10000 nM),54.5
2,NC(=O)Nc1cc(-c2cccc(F)c2)sc1C(=O)N[C@H]1CCCNC1 [AZD7762] (1000 nM),65.8
3,CCCCCCCCCCCCCCCCCCOP(=O)([O-])OC1CC[N+](C)(C)CC1 [Perifosine] (2500 nM),108

# Tested on: CAL-51
# Assay: as above
# Details: incubation time: 72 h
# Outline: as §1
row,Structure (SMILES),normalised response [%]
1,O=C(CCCCCCC(=O)Nc1ccc([C@H]2O[C@@H](CSc3nc(-c4ccccc4)c(-c4ccccc4)o3)C[C@@H](c3ccc(CO)cc3)O2)cc1)NO [Tubacin] (10000 nM),53.8
2,NC(=O)Nc1cc(-c2cccc(F)c2)sc1C(=O)N[C@H]1CCCNC1 [AZD7762] (1000 nM),14.1
3,CCCCCCCCCCCCCCCCCCOP(=O)([O-])OC1CC[N+](C)(C)CC1 [Perifosine] (2500 nM),96.4

# Tested on: HCC1599
# Assay: as above
# Details: incubation time: 72 h
# Outline: as §1
row,Structure (SMILES),normalised response [%]
1,O=C(CCCCCCC(=O)Nc1ccc([C@H]2O[C@@H](CSc3nc(-c4ccccc4)c(-c4ccccc4)o3)C[C@@H](c3ccc(CO)cc3)O2)cc1)NO [Tubacin] (10000 nM),95.2
2,NC(=O)Nc1cc(-c2cccc(F)c2)sc1C(=O)N[C@H]1CCCNC1 [AZD7762] (1000 nM),98
3,CCCCCCCCCCCCCCCCCCOP(=O)([O-])OC1CC[N+](C)(C)CC1 [Perifosine] (2500 nM),99.3

# Tested on: CAL-85-1
# Assay: as above
# Details: incubation time: 72 h
# Outline: as §1
row,Structure (SMILES),normalised response [%]
1,O=C(CCCCCCC(=O)Nc1ccc([C@H]2O[C@@H](CSc3nc(-c4ccccc4)c(-c4ccccc4)o3)C[C@@H](c3ccc(CO)cc3)O2)cc1)NO [Tubacin] (10000 nM),-3.19
2,NC(=O)Nc1cc(-c2cccc(F)c2)sc1C(=O)N[C@H]1CCCNC1 [AZD7762] (1000 nM),-20.6
3,CCCCCCCCCCCCCCCCCCOP(=O)([O-])OC1CC[N+](C)(C)CC1 [Perifosine] (2500 nM),97.4

# Tested on: MDA-MB-231
# Assay: as above
# Details: incubation time: 72 h
# Outline: as §1
row,Structure (SMILES),normalised response [%]
1,O=C(CCCCCCC(=O)Nc1ccc([C@H]2O[C@@H](CSc3nc(-c4ccccc4)c(-c4ccccc4)o3)C[C@@H](c3ccc(CO)cc3)O2)cc1)NO [Tubacin] (10000 nM),-21.5
2,NC(=O)Nc1cc(-c2cccc(F)c2)sc1C(=O)N[C@H]1CCCNC1 [AZD7762] (1000 nM),48.5
3,CCCCCCCCCCCCCCCCCCOP(=O)([O-])OC1CC[N+](C)(C)CC1 [Perifosine] (2500 nM),106

# Tested on: BT-474
# Assay: as above
# Details: incubation time: 72 h
# Outline: as §1
row,Structure (SMILES),normalised response [%]
1,O=C(CCCCCCC(=O)Nc1ccc([C@H]2O[C@@H](CSc3nc(-c4ccccc4)c(-c4ccccc4)o3)C[C@@H](c3ccc(CO)cc3)O2)cc1)NO [Tubacin] (10000 nM),73.7
2,NC(=O)Nc1cc(-c2cccc(F)c2)sc1C(=O)N[C@H]1CCCNC1 [AZD7762] (1000 nM),91.9
3,CCCCCCCCCCCCCCCCCCOP(=O)([O-])OC1CC[N+](C)(C)CC1 [Perifosine] (2500 nM),95.6

# Tested on: Hs578T
# Assay: as above
# Details: incubation time: 72 h
# Outline: as §1
row,Structure (SMILES),normalised response [%]
1,O=C(CCCCCCC(=O)Nc1ccc([C@H]2O[C@@H](CSc3nc(-c4ccccc4)c(-c4ccccc4)o3)C[C@@H](c3ccc(CO)cc3)O2)cc1)NO [Tubacin] (10000 nM),85.2
2,NC(=O)Nc1cc(-c2cccc(F)c2)sc1C(=O)N[C@H]1CCCNC1 [AZD7762] (1000 nM),40.7
3,CCCCCCCCCCCCCCCCCCOP(=O)([O-])OC1CC[N+](C)(C)CC1 [Perifosine] (2500 nM),128

# Tested on: MDA-MB-453
# Assay: as above
# Details: incubation time: 72 h
# Outline: as §1
row,Structure (SMILES),normalised response [%]
1,O=C(CCCCCCC(=O)Nc1ccc([C@H]2O[C@@H](CSc3nc(-c4ccccc4)c(-c4ccccc4)o3)C[C@@H](c3ccc(CO)cc3)O2)cc1)NO [Tubacin] (10000 nM),39
2,NC(=O)Nc1cc(-c2cccc(F)c2)sc1C(=O)N[C@H]1CCCNC1 [AZD7762] (1000 nM),87
3,CCCCCCCCCCCCCCCCCCOP(=O)([O-])OC1CC[N+](C)(C)CC1 [Perifosine] (2500 nM),83.9

# Tested on: CAL-148
# Assay: as above
# Details: incubation time: 72 h
# Outline: as §1
row,Structure (SMILES),normalised response [%]
1,O=C(CCCCCCC(=O)Nc1ccc([C@H]2O[C@@H](CSc3nc(-c4ccccc4)c(-c4ccccc4)o3)C[C@@H](c3ccc(CO)cc3)O2)cc1)NO [Tubacin] (10000 nM),81.1
2,NC(=O)Nc1cc(-c2cccc(F)c2)sc1C(=O)N[C@H]1CCCNC1 [AZD7762] (1000 nM),87.1
3,CCCCCCCCCCCCCCCCCCOP(=O)([O-])OC1CC[N+](C)(C)CC1 [Perifosine] (2500 nM),96.9

# Source: the supplement of paper PMC4862054
